Patent US20250281424A1 (New York Blood Center, Inc, priority 2020, published 2025)
Like-named read-outs stand apart in the source and are kept apart here.

Target: T1, human PF4 (Homo sapiens, UniProt P02776)
T1 construct: PF4 is a 70 amino acid, lysine-rich 7.8 kDa platelet-specific protein; made in house; host or cells: Escherichia coli BL21DE3 pLysS (pT7-7) and/or Drosophila S2 cells
T1 sequence (P02776 32-101): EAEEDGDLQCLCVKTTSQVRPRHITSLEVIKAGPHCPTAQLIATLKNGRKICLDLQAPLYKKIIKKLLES
Assay: Inhibition of PF4 tetramer formation (BS3 cross-linking, SDS-PAGE)
Assay type: biochemical
Conditions: for inhibition at 1 µM: 1 μM inhibitor; for inhibition at 1 µM / inhibition at 3 µM / inhibition at 5 µM / inhibition at 10 µM: read-out: % inhibition of PF4 tetramer formation at single concentration of inhibitor; for inhibition at 3 µM: 3 μM inhibitor (column A); for inhibition at 5 µM: 5 μM inhibitor; for inhibition at 10 µM: 10 μM inhibitor (column A)
Summary of the method: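 Recombinant human wild-type PF4 (E. coli-expressed, heparin-purified), 10 μg/ml in PBS, incubated with compound 15 min at 37° C or 60 min at room temperature, then cross-linked with 0.2 mM BS3 for 30 min at room temperature. Reducing 12% SDS-PAGE; bands quantified as % tetramer, trimer, dimer, monomer versus compound-free control.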

[1] = read-out: IC50 of PF4 tetramer formation inhibition

SMILES | inhibition at 1 µM [%] | inhibition at 3 µM [%] | IC50 [1] [µM] | inhibition at 5 µM [%] | inhibition at 10 µM [%] | IC50 [µM]
CC(C)C[C@@H](N)C(=O)C1C(=O)c2ccc(S(=O)(=O)c3ccc4c(c3)C(=O)C(C(=O)[C@H](N)CC(C)C)C4=O)cc2C1=O (stereo partly drawn) [Example 355, 2-[(2R)-2-amino-4-methylpentanoyl]-5-({2-[(2R)-2-amino-4-methylpentanoyl]-1,3-dioxo-2,3-dihydro-1H-inden-5-yl}sulfonyl)-2,3-dihydro-1H-indene-1,3-dione] | 23 | 61 | – | – | – | –
CSCCC(=O)C1C(=O)c2ccc(S(=O)(=O)c3ccc4c(c3)C(=O)C(C(=O)CCSC)C4=O)cc2C1=O (stereo not shown) [Example 278, 2-[3-(methylsulfanyl)propanoyl]-5-({2-[3-(methylsulfanyl)propanoyl]-1,3-dioxo-2,3-dihydro-1H-inden-5-yl}sulfonyl)-2,3-dihydro-1H-indene-1,3-dione] | 1 | 18 | 3 | – | – | –
CC(C)(C)OC(=O)NCCCC(=O)C1C(=O)c2ccc(Oc3ccc4c(c3)C(=O)C(C(=O)CCCNC(=O)OC(C)(C)C)C4=O)cc2C1=O (stereo not shown) [Example 385, tert-butyl N-[4-(5-{[2-(4-{[(tert-butoxy)carbonyl]amino}butanoyl)-1,3-dioxo-2,3-dihydro-1H-inden-5-yl]oxy}-1,3-dioxo-2,3-dihydro-1H-inden-2-yl)-4-oxobutyl]carbamate] | 29 | 59 | – | – | – | –
COC(=O)[C@H]1CCCC[C@H]1C(=O)C1C(=O)c2ccc(S(=O)(=O)c3ccc4c(c3)C(=O)C(C(=O)[C@@H]3CCCC[C@@H]3C(=O)OC)C4=O)cc2C1=O (stereo partly drawn) [Example 257, methyl (1S,2R)-2-[5-({2-[(1R,2S)-2-(methoxycarbonyl)cyclohexanecarbonyl]-1,3-dioxo-2,3-dihydro-1H-inden-5-yl}sulfonyl)-1,3-dioxo-2,3-dihydro-1H-indene-2-carbonyl]cyclohexane-1-carboxylate] | 7 | 37 | – | – | – | –
COC(=O)c1ccccc1NC(=O)C1C(=O)c2ccc(S(=O)(=O)c3ccc4c(c3)C(=O)C(C(=O)Nc3ccccc3C(=O)OC)C4=O)cc2C1=O (stereo not shown) [Example 97, methyl 2-{5-[(2-{[2-(methoxycarbonyl)phenyl]carbamoyl}-1,3-dioxo-2,3-dihydro-1H-inden-5-yl)sulfonyl]-1,3-dioxo-2,3-dihydro-1H-indene-2-amido}benzoate] | – | – | 8.9 | 100 | 100 | –
O=C(c1ccc2c(c1)C(=O)C(C(=O)Cc1cccnc1)C2=O)c1ccc2c(c1)C(=O)C(C(=O)Cc1cccnc1)C2=O (stereo not shown) [Example 238, 5-{1,3-dioxo-2-[2-(pyridin-3-yl)acetyl]-2,3-dihydro-1H-indene-5-carbonyl}-2-[2-(pyridin-3-yl)acetyl]-2,3-dihydro-1H-indene-1,3-dione] | 7 | 100 | – | – | – | –
CS(=O)(=O)N1CCC(NC(=O)C2C(=O)c3ccc(C(=O)c4ccc5c(c4)C(=O)C(C(=O)NC4CCN(S(C)(=O)=O)CC4)C5=O)cc3C2=O)CC1 (stereo not shown) [Example 365, N-(1-methanesulfonylpiperidin-4-yl)-5-{2-[(1-methanesulfonylpiperidin-4-yl)carbamoyl]-1,3-dioxo-2,3-dihydro-1H-indene-5-carbonyl}-1,3-dioxo-2,3-dihydro-1H-indene-2-carboxamide] | 27 | 63 | 3.39 | – | – | –
C[C@@H](C(=O)C1C(=O)c2ccc(C(=O)c3ccc4c(c3)C(=O)C(C(=O)[C@H](C)N(C)C(=O)OC(C)(C)C)C4=O)cc2C1=O)N(C)C(=O)OC(C)(C)C (stereo partly drawn) [Example 155, tert-butyl N-[(2S)-1-(5-{2-[(2S)-2-{[(tert-butoxy)carbonyl](methyl)amino}propanoyl]-1,3-dioxo-2,3-dihydro-1H-indene-5-carbonyl}-1,3-dioxo-2,3-dihydro-1H-inden-2-yl)-1-oxopropan-2-yl]-N-methylcarbamate] | – | – | 2.1 | 95 | 100 | –
O=C(COC1CCCCC1)C1C(=O)c2ccc(S(=O)(=O)c3ccc4c(c3)C(=O)C(C(=O)COC3CCCCC3)C4=O)cc2C1=O (stereo not shown) [Example 232, 2-[2-(cyclohexyloxy)acetyl]-5-({2-[2-(cyclohexyloxy)acetyl]-1,3-dioxo-2,3-dihydro-1H-inden-5-yl}sulfonyl)-2,3-dihydro-1H-indene-1,3-dione] | 10 | 67 | – | – | – | –
N#CC1C(=O)c2ccc(C(=O)c3ccc4c(c3)C(=O)C(C#N)C4=O)cc2C1=O (stereo not shown) [Example 250, 5-(2-cyano-1,3-dioxo-2,3-dihydro-1H-indene-5-carbonyl)-1,3-dioxo-2,3-dihydro-1H-indene-2-carbonitrile] | 26 | 42 | 3 | – | – | –
O=C(Nc1ccc(Cl)cc1)C1C(=O)c2ccc(S(=O)(=O)c3ccc4c(c3)C(=O)C(C(=O)Nc3ccc(Cl)cc3)C4=O)cc2C1=O (stereo not shown) [Example 87, N-(4-chlorophenyl)-5-({2-[(4-chlorophenyl)carbamoyl]-1,3-dioxo-2,3-dihydro-1H-inden-5-yl}sulfonyl)-1,3-dioxo-2,3-dihydro-1H-indene-2-carboxamide] | – | – | 2.5 | – | – | –
C[C@H](NC(=O)C1C(=O)c2ccc(S(=O)(=O)c3ccc4c(c3)C(=O)C(C(=O)N[C@@H](C)C(=O)O)C4=O)cc2C1=O)C(=O)O (stereo partly drawn) [Example 318, (2S)-2-({5-[(2-{[(1S)-1-carboxyethyl]carbamoyl}-1,3-dioxo-2,3-dihydro-1H-inden-5-yl)sulfonyl]-1,3-dioxo-2,3-dihydro-1H-inden-2-yl}formamido) propanoic acid] | 15 | 36 | – | – | – | –
COCCOCCN(CC(=O)C1C(=O)c2ccc(S(=O)(=O)c3ccc4c(c3)C(=O)C(C(=O)CN(CCOCCOC)C(=O)OC(C)(C)C)C4=O)cc2C1=O)C(=O)OC(C)(C)C (stereo not shown) [Example 392, tert-butyl N-{2-[5-({2-[2-(11,11-dimethyl-9-oxo-2,5,10-trioxa-8-azadodecan-8-yl)acetyl]-1,3-dioxo-2,3-dihydro-1H-inden-5-yl}sulfonyl)-1,3-dioxo-2,3-dihydro-1H-inden-2-yl]-2-oxoethyl}-N-[2-(2-methoxyethoxy)ethyl]carbamate] | 1 | 1 | – | – | – | –
NCC(=O)C1C(=O)c2ccc(C(=O)c3ccc4c(c3)C(=O)C(C(=O)CN)C4=O)cc2C1=O (stereo not shown) [Example 327, 2-(2-aminoacetyl)-5-[2-(2-aminoacetyl)-1,3-dioxo-2,3-dihydro-1H-indene-5-carbonyl]-2,3-dihydro-1H-indene-1,3-dione] | 13 | 24 | – | – | – | –
CC(C)(C)OC(=O)N1CC[C@@H](C(=O)C2C(=O)c3ccc(C(=O)c4ccc5c(c4)C(=O)C(C(=O)[C@@H]4CCN(C(=O)OC(C)(C)C)C4)C5=O)cc3C2=O)C1 (stereo partly drawn) [Example 123, tert-butyl (3R)-3-(5-{2-[(3R)-1-[(tert-butoxy)carbonyl]pyrrolidine-3-carbonyl]-1,3-dioxo-2,3-dihydro-1H-indene-5-carbonyl}-1,3-dioxo-2,3-dihydro-1H-indene-2-carbonyl)pyrrolidine-1-carboxylate] | – | – | 1.6 | 88 | 89 | –
CC(C)(C)OC(=O)NCC(=O)C1C(=O)c2ccc(C#Cc3ccc4c(c3)C(=O)C(C(=O)CNC(=O)OC(C)(C)C)C4=O)cc2C1=O (stereo not shown) [Example 319, tert-butyl N-[2-(5-{2-[2-(2-{[(tert-butoxy)carbonyl]amino}acetyl)-1,3-dioxo-2,3-dihydro-1H-inden-5-yl]ethynyl}-1,3-dioxo-2,3-dihydro-1H-inden-2-yl)-2-oxoethyl]carbamate] | 13 | 22 | – | – | – | –
CO[C@@H](C)C(=O)C1C(=O)c2ccc(Oc3ccc4c(c3)C(=O)C(C(=O)[C@H](C)OC)C4=O)cc2C1=O (stereo partly drawn) [Example 248, 2-[(2S)-2-methoxypropanoyl]-5-({2-[(2S)-2-methoxypropanoyl]-1,3-dioxo-2,3-dihydro-1H-inden-5-yl}oxy)-2,3-dihydro-1H-indene-1,3-dione] | 26 | 56 | – | – | – | 3
O=C(c1ccc2c(c1)C(=O)C(C(=O)NCc1ccco1)C2=O)c1ccc2c(c1)C(=O)C(C(=O)NCc1ccco1)C2=O (stereo not shown) [Example 19, 5,5′-carbonylbis(1,3-dioxo-indan-2-carboxylic acid (furan-2-ylmethyl)-amide)] | – | – | – | 29 | 56 | –
O=C1c2ccc(Oc3ccc4c(c3)C(=O)C(C(=O)C3CCCS3(=O)=O)C4=O)cc2C(=O)C1C(=O)C1CCCS1(=O)=O (stereo not shown) [Example 370, 2-(5-{[2-(1,1-dioxo-1λ^6-thiolane-2-carbonyl)-1,3-dioxo-2,3-dihydro-1H-inden-5-yl]oxy}-1,3-dioxo-2,3-dihydro-1H-indene-2-carbonyl)-1λ^6-thiolane-1,1-dione] | 3 | 6 | – | – | – | –
CN1CCC[C@H]1C(=O)C1C(=O)c2ccc(S(=O)(=O)c3ccc4c(c3)C(=O)C(C(=O)[C@@H]3CCCN3C)C4=O)cc2C1=O (stereo partly drawn) [Example 167, 2-[(2S)-1-methylpyrrolidine-2-carbonyl]-5-({2-[(2S)-1-methylpyrrolidine-2-carbonyl]-1,3-dioxo-2,3-dihydro-1H-inden-5-yl}sulfonyl)-2,3-dihydro-1H-indene-1,3-dione] | – | – | – | 18 | 36 | –
